Measured values reported in patent US20050124684A1, “5-(hydroxymethyl) furfural and derivatives as inhibitors of TNFalpha and IL-1beta production” (priority 2003, published 2005).

What was measured:
[1] = test system: TNFα; assay: Inhibition of LPS-induced TNFα expression in PBMCs (ELISA); format: cell-based; settings: LPS-stimulated PBMCs; for Concentration of TNFα in PBMCs / Inhibition ratio of production of TNFα in PBMCs: overnight
Experimental: (§1) Peripheral blood […] (PBMCs) were isolated from fresh blood using a Ficoll-Paque Plus reagent (Amersham Bioscience) according to the protocol recommended by the manufacturer. The cells were suspended in a RPMI 1640 medium containing 10% FBS at a concentration of 1×10^5 cells/ml and seeded in a 96-well plate (1×10^4 cells total in each well). Each reaction was carried out in three wells. […] In a positive control, dexamethason (DEX), an anti-inflammatory agent, instead of 5-HMF, was added (final concentration 10 μM). In a positive control, 10 μl of the medium, instead of 5-HMF, was added. The plate was incubated at 37° C. under 5% CO2 for 15 minutes. After 10 μl aliquots of 100 μg/ml of lipopolysaccharide (LPS) were added to all wells except for the negative control, the plate was incubated at 37° C. under 5% CO2 overnight. The plate was spun at 1000 rpm for 15 minutes and the supernatants were collected. The concentrations of TNFα and IL-1β were measured by the TNFα ELISA (Enzyme Linked Immunosorbent Assay) Kit and IL1-β ELISA Kit (Jingmei Bioengineer Technology). The inhibition ratios of TNFα and IL1-β were calculated as follows and the results are shown in Tables 1 and 2: TNFα Inhibition Ratio (%)=[TNFα]control−[TNFα]5-HMF/[TNFα]control×100% IL1-β Inhibition Ratio (%)=[IL1-β]control−[IL1-β]5-HMF/[IL1-β]control×100% where [TNFα]5-HMF is the concentration of TNFα in PBMCs treated with 5-HMF and LPS, [TNFα]control is the concentration of TNFα in PBMCs treated with LPS and the medium, [IL1-β]5-HMF is the concentration of IL1-β in PBMCs treated with 5-HMF and LPS, and [IL1-β]control is the concentration of IL1-β in PBMCs treated with LPS and the medium.

[2] = test system: IL-1β; assay: Inhibition of LPS-induced IL-1β expression in PBMCs (ELISA); format: cell-based; settings: LPS-stimulated PBMCs; for Concentration of IL-1β in PBMCs / Inhibition ratio of production of IL-1β in PBMCs: overnight
Experimental: as §1

[3] = at the concentration of 300 μg/ml

O=Cc1ccc(CO)o1 [5-HMF, 5-(hydroxymethyl)furfural]
Concentration of TNFα in PBMCs ([1]; 5-HMF 3 μg/ml): 124.4 ± 15.2 pg/mL
Inhibition ratio of production of TNFα in PBMCs ([1]; 5-HMF 3 μg/ml): 15.7 ± 10.3%
Concentration of TNFα in PBMCs ([1]; 5-HMF 10 μg/ml): 107.9 ± 20.0 pg/mL
Inhibition ratio of production of TNFα in PBMCs ([1]; 5-HMF 10 μg/ml): 26.8 ± 13.6%
Concentration of TNFα in PBMCs ([1]; 5-HMF 30 μg/ml): 82.9 ± 27.9 pg/mL
Inhibition ratio of production of TNFα in PBMCs ([1]; 5-HMF 30 μg/ml): 43.8 ± 18.9%
Concentration of TNFα in PBMCs ([1]; 5-HMF 100 μg/ml): 39.3 ± 19.7 pg/mL
Inhibition ratio of production of TNFα in PBMCs ([1]; 5-HMF 100 μg/ml): 73.4 ± 13.4%
Concentration of TNFα in PBMCs ([1]; 5-HMF 300 μg/ml): 0.3 ± 6.4 pg/mL
Inhibition ratio of production of TNFα in PBMCs ([1]; 5-HMF 300 μg/ml): 99.3 ± 4.3%
Inhibition of expression of TNFα (in words) [1, 3]: completely inhibited
Inhibition of expression of TNFα (in words) ([1]; over the tested concentrations): concentration-dependent
Concentration of IL-1β in PBMCs ([2]; 5-HMF 3 μg/ml): 69.9 ± 12.6 pg/mL
Inhibition ratio of production of IL-1β in PBMCs ([2]; 5-HMF 3 μg/ml): 40.2 ± 10.8%
Concentration of IL-1β in PBMCs ([2]; 5-HMF 10 μg/ml): 62.7 ± 10.5 pg/mL
Inhibition ratio of production of IL-1β in PBMCs ([2]; 5-HMF 10 μg/ml): 46.4 ± 9.0%
Concentration of IL-1β in PBMCs ([2]; 5-HMF 30 μg/ml): 40.1 ± 2.4 pg/mL
Inhibition ratio of production of IL-1β in PBMCs ([2]; 5-HMF 30 μg/ml): 65.7 ± 2.0%
Concentration of IL-1β in PBMCs ([2]; 5-HMF 100 μg/ml): 13.0 ± 3.7 pg/mL
Inhibition ratio of production of IL-1β in PBMCs ([2]; 5-HMF 100 μg/ml): 88.8 ± 3.1%
Concentration of IL-1β in PBMCs ([2]; 5-HMF 300 μg/ml): 0 ± 5.0 pg/mL
Inhibition ratio of production of IL-1β in PBMCs ([2]; 5-HMF 300 μg/ml): 100 ± 4.3%
Inhibition of expression of IL-1β (in words) [2, 3]: completely inhibited
Inhibition of expression of IL-1β (in words) ([2]; over the tested concentrations): concentration-dependent

C[C@@H]1C[C@H]2[C@@H]3CCC4=CC(=O)C=C[C@]4(C)[C@@]3(F)[C@@H](O)C[C@]2(C)[C@@]1(O)C(=O)CO [DEX, dexamethason, reference compound]
Concentration of TNFα in PBMCs ([1]; 10 μM DEX): 39.5 ± 9.0 pg/mL
Inhibition ratio of production of TNFα in PBMCs ([1]; 10 μM DEX): 73.2 ± 6.1%
Concentration of IL-1β in PBMCs ([2]; 10 μM DEX): 20.2 ± 7.0 pg/mL
Inhibition ratio of production of IL-1β in PBMCs ([2]; 10 μM DEX): 82.7 ± 6.0%
